Experimental findings from publication PMC5267425, “Identification of small molecule modulators of HIV-1 Tat and Rev protein accumulation” (Retrovirology, 2017) are described below.

Data set [1] deals with HIV-1 gene expression in HeLa rtTA HIV∆Mls cells. Briefly: HIV-1 gene expression / virion production by p24 antigen ELISA, Dox-inducible provirus. Format: cell-based. The following applies: for reduction of HIV-1 viral production relative to DMSO (+Dox): 791 30 µM, 833 2 µM, 892 15 µM, 24 h (Fig. 1); for IC50: Human immunodeficiency virus 1, HeLa. From the text:
Effects of compound treatment on HIV-1 gene expression were initially assessed in the context of HeLa rtTA HIV∆Mls cells stably transduced with an inducible Tet-On HIV-1 system (as previously described). The provirus was modified by either deletion in the reverse transcriptase and integrase region of the pol gene by an MlsI restriction digest (HeLa rtTA HIV∆Mls cell line) or GFP fusion to Gag, deleting the PR and RT-coding regions (HeLa rtTA HIVGagGFP cell line). […] All cell lines were maintained in Iscove’s modified Delbecco’s medium (IMDM; Wisent) supplemented with 10% (vol/vol) fetal bovine serum (FBS, Wisent), 1% penicillin/streptomycin (P/S, Wisent) and 0.2% Amphotericin B (Wisent). Indicator cell line CEM-GXR was obtained from Dr. Mark Brockman (Simon Fraser University). The RTI-resistant virus (E00443) was obtained from Dr. Zabrina Brumme (Simon Fraser University). The HIV-1 clade A (97USSN54 (N54)), HIV-1 clade B (IIIB), integrase inhibitor resistant virus (11845), protease inhibitor resistant virus (2948) were obtained through the NIH AIDS Research and Reference reagent program, Division of AIDS, NIAID, NIH).
The compounds used in the treatment assay were obtained from ChemBridge. All compounds were solubilized to 10 mM or 1 mM stock concentrations in dimethyl sulfoxide (DMSO) and stored at −20 °C for subsequent experiments. Cells were incubated for 3–5 h in the presence of the compounds prior to induction with doxycycline (Dox) at a final concentration of 2 μg/mL. 24 h post compound treatment, culture medium was harvested, adjusted to 1% Triton X-100, and incubated at 37 °C for 1 h for p24 antigen ELISA. Cells were harvested in 2 mM EDTA, 1xPBS. RNA was isolated using Aurum Total RNA extraction kits (Bio-Rad), while total protein was extracted with RIPA buffer (1% NP-40, 0.1% SDS, 0.5% sodium deoxycholate, 150 mM NaCl, 50 mM Tris–HCl).
ELISA for p24 Gag antigen was performed on cell supernatants using kits purchased from Frederick National Laboratory for Cancer Research (Leidos) or XpressBio extended range kit and performed according to manufacturer’s instructions. Protein concentration in cell lysates was quantified by Bradford assay and equal amounts of protein run on 7, 10, 12, or 14% SDS-PAGE, depending on the protein of interest. Following transfer to PVDF (BioRad or Perkin-Elmer), blots were blocked in either 5% Milk-PBS-T (5% Milk, 0.05% Tween-20, 1× PBS) or 3% BSA-PBS-T (3% BSA, 0.05% Tween-20, 1× PBS) prior to incubating with primary antibody (all diluted in 3% BSA-PBS-T). Primary antibodies used were: purified mouse anti-p24 supernatant from anti-HIV-1 Gag hybridoma 183, mouse anti-gp120 hybridoma 902 (NIH AIDS Reagent Program), mouse monoclonal antibody to HIV-1 Rev (Abcam), rabbit polyclonal antibody to HIV-1 Tat (Abcam), mouse monoclonal antibody to p53 (Santa Cruz), rabbit purified IgG for Nap1 (provided by L. Frappier), rabbit polyclonal antibody to GAPDH (Sigma-Aldrich), or mouse monoclonal antibody to α-Tubulin (Sigma-Aldrich). Following incubation with appropriate secondary antibody, blots were visualized by ECL, ECL Plus (Perkin-Elmer), or Clarity Western ECL substrate (BioRad). Quantification of the relative intensity of the detected bands was done using ImageLab software and normalized to corresponding bands of the loading control (GAPDH or α-Tubulin).

A short description of data set [2]: Trypan blue exclusion, PBMCs. Format: cell-based, human. The following applies: human, peripheral blood mononuclear cells (PBMCs). As for the experimental part:
To examine the effect of compounds on viral replication, studies were carried out in peripheral blood mononuclear cells (PBMCs). PBMCs were isolated from healthy (HIV-uninfected) volunteer blood donors as described by Dobson-Belaire et al.. Informed consent was obtained from participants in accordance with the guidelines for conduct of clinical research at the University of Toronto and St. Michael’s Hospital, Toronto, Ontario, Canada. Stored PBMCs were thawed, washed with RPMI 1640 complete medium and cultured in RPMI 1640 complete medium containing 2 μg/mL of PHA-L (Sigma-Aldrich) and 20 U/mL of IL-2 (BD Pharmingen) for 72 h. Subsequently, cells were counted and a portion of the cells was separated to another tube for uninfected control treatments. The remaining PBMCs were resuspended in media containing HIV-1 BaL at a multiplicity of infection (MOI) of approximately 0.01 and infected by spinoculation, following which cells were washed twice with room temperature RPMI 1640 complete medium and resuspended to a concentration of 5 × 10^5 cells/mL in complete RPMI 1640 containing 20 U/mL of IL-2. Compounds were added to infected PBMCs or uninfected control PBMCs. Azidothymidine (AZT, Sigma-Aldrich) was used as control treatment at a final concentration of 3.74 μM. On day 4 post infection, culture medium was replenished with the compounds and IL-2 in fresh complete RPMI 1640. On days 2, 4, 6 and 8 post infection, culture supernatant was harvested, virus lysed by adjusting to 1% TritonX-100 and stored at −20 °C for p24 antigen ELISA. A fraction of the culture was harvested to assess percent cell viability by trypan blue exclusion using Glasstic slides (Kova). Relative percent cell viability in compound treated samples versus DMSO-control treated samples was calculated as follows: (total viable cells/total cells)compound/(total viable cells/total cells)DMSO.

Turning to `Cc1cc(NCc2cccnc2)n2ncc(-c3ccc(Cl)cc3)c2n1` [Compound 791, 3-(4-chlorophenyl)-5-methyl-N-(3-pyridinylmethyl)pyrazolo[1,5-a]pyrimidin-7-amine], in data set [1], the “reduction of HIV-1 viral production relative to DMSO (+Dox)” value is reported as 80–90% and the IC50 came to 8.2 µM. Also, the CC50 in data set [2] is over 10 µM. The viability at 6 days post infection in data set [2] (PBMCs, 6 days post infection, concentrations up to 7.5 µM, read-out: cell viability) was over 80%.
For `COc1ccc(C=NNC(=O)c2ccccc2O)cc1O` [Compound 892, 2-hydroxy-N′-(3-hydroxy-4-methoxybenzylidene)benzohydrazide], in data set [1], the “reduction of HIV-1 viral production relative to DMSO (+Dox)” value is 80–90% and the half-inhibitory concentration (IC50) amounted to 1.8 µM. Also, the CC50 in data set [2] worked out at 4.5 µM.
On to `O=C(NC(=S)NNC(=O)c1ccccc1O)c1ccc(-c2ccccc2)cc1` [Compound 833, N-([2-(2-hydroxybenzoyl)hydrazino]carbonothioyl}-4-biphenylcarboxamide], for which the “reduction in Gag expression” value in data set [1] (1.5 µM) amounted to 90%. Besides, in data set [1], the “reduction of HIV-1 viral production relative to DMSO (+Dox)” value is 80–90% and half-maximal inhibition (IC50) was put at 0.6 µM. The same molecule showed a CC50 in data set [2] of 3 µM.
